Like-named read-outs stand apart in the source and are kept apart here. Each block holds one molecule with its values, some of them ahead of it.
What was measured:
IRAK4 = target: T1, IRAK4 (Homo sapiens, UniProt Q9NWZ3); assay: IRAK-4 activity inhibition assay (Caliper); type: biochemical; conditions: 37 μM ATP, 3.5 nM IRAK4
T1 sequence (Q9NWZ3 1-460): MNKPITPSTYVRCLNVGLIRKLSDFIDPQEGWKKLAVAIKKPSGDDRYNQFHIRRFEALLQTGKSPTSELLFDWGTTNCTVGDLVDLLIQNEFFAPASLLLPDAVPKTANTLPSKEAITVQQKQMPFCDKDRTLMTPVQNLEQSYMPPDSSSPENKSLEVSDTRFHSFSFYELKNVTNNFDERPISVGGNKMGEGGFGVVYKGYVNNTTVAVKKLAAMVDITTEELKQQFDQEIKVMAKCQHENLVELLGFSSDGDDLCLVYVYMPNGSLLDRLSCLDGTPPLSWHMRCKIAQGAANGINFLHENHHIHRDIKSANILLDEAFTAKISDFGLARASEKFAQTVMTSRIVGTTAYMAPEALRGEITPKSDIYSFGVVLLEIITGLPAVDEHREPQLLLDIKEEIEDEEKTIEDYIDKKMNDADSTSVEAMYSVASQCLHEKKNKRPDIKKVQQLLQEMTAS

THP-1 cells = assay: LPS induced cytokine (TNFα and IL8) production assay in THP-1 cells; type: cell-based; conditions: Homo sapiens, 300 ng/mL LPS
Experimental: Cytokine Production Assay
Provided compounds were also assayed in an LPS (Lipopolysacharide) or R848 (TLR-7 agonist) induced cytokine (TNFα and IL8) production assay in THP-1 cells, human peripheral blood mononuclear cells (hPBMC), and whole blood. The exemplary protocol for this assay in THP-1 cells was as follows below.
THP-1 cells from ATCC (TIB-202) were cultured in RPMI Medium 1640 (Invitrogen, Cat No. A10491-01), 10% fetal bovine serum (Invitrogen, Cat No. 10099141, Lot No. 8172882) containing 100 U/mL Penicillin, 100 μg/mL streptomycin (Invitrogen, Cat No. 15140-122), and 50 uM 2-Mercaptoethanol (Invitrogen, Cat No. 21985023). LPS-EK ultra pure (Invivogen, Cat No. tlrl-peklps) was used to induce IL8 and TNFα production, that was detected in the cell culture supernatant by IL8 HTRF kit (Cisbio, Cat No. 62IL8PEB) and TNFα HTRF kit (Cisbio, Cat No. 62TNFPEB), as per manufacturer instructions. Cells were cultured in 96 well assay plates at 100,000 cells per well, and compounds diluted in final 0.3% DMSO were pre-incubated with cells for 1 hour prior to stimulation with 300 ng/mL LPS. Cytokine production in cell supernatant was measured at 5 hours for TNFα and IL8 production, and for 16 hours for IL8 production and assessment of cell viability.
The compound numbers correspond to the compound numbers in Table 1. […] “NA” stands for “not assayed.”

Compound: Cn1cc(Nc2nc(O[C@H]3CC[C@H](N(C)C)CC3)c3c4c(sc3n2)CCC4CC(N)=O)cn1 (stereo in doubt) [Compound I-222, 2-[(3R)-12-[[4-(dimethylamino)cyclohexyl]oxy]-10-[(1-methyl-1H-pyrazol-4-yl)amino]-7-thia-9, 11-diazatricyclo[6.4.0.0[2,6]]dodeca-1(8),2(6),9,11-tetraen-3-yl]acetamide]
IC50 (THP-1 cells; read-out: IL8 production IC50): ≥ 5000 nM | IC50 (THP-1 cells; read-out: TNFα production IC50): ≥ 5000 nM

Compound: CN(C)[C@H]1CC[C@H](Oc2ncnc3sc4c(c23)[C@@H](CCO)CC4)CC1 [Compound I-34, 2-[(3R)-12-[[4-(dimethylamino)cyclohexyl]oxy]-7-thia-9,11-diazatricyclo[6.4.0.0[2,6]]dodeca-1(12),2(6),8,10-tetraen-3-yl]ethan-1-ol]
IC50 (IRAK4): < 5000 nM | IC50 (THP-1 cells; read-out: IL8 production IC50): 1000 to 5000 nM | IC50 (THP-1 cells; read-out: TNFα production IC50): 1000 to 5000 nM

Compound: C[C@H](O)C[C@H]1CCc2sc3ncnc(O[C@H]4CC[C@H](N(C)C)CC4)c3c21 [Compound I-40, (2S)-1-[(3R)-12-[[4-(dimethylamino)cyclohexyl]oxy]-7-thia-9,11-diazatricyclo[6.4.0.0[2,61]]dodeca-1(8),2(6),9,11-tetraen-3-yl]propan-2-ol]
IC50 (IRAK4): < 5000 nM | IC50 (THP-1 cells; read-out: IL8 production IC50): 1000 to 5000 nM | IC50 (THP-1 cells; read-out: TNFα production IC50): 1000 to 5000 nM

Compound: CN(C)[C@H]1CC[C@H](Oc2ncnc3sc4c(c23)[C@@H](CCC(N)=O)CC4)CC1 [Compound I-44, 3-[(3S)-12-[[4-(dimethylamino)cyclohexyl]oxy]-7-thia-9,11-diazatricyclo[6.4.0.0[2,6]]dodeca-1(8),2(6),9,11-tetraen-3-yl]propanamide]
IC50 (IRAK4): < 5000 nM | IC50 (THP-1 cells; read-out: IL8 production IC50): 1000 to 5000 nM | IC50 (THP-1 cells; read-out: TNFα production IC50): 500 to 1000 nM

Compound: NC(=O)[C@H](O)C[C@H]1CCc2sc3ncnc(O[C@H]4CC[C@H](N5CCOCC5)CC4)c3c21 [Compound I-93, (R)-2-hydroxy-3-((R)-4-(((1r,4R)-4-morpholinocyclohexyl)oxy)-6,7-dihydro-5H-cyclopenta[4,5]thieno[2,3-d]pyrimidin-5-yl)propanamide]
IC50 (THP-1 cells; read-out: IL8 production IC50): 1000 to 5000 nM | IC50 (THP-1 cells; read-out: TNFα production IC50): 1000 to 5000 nM

Compound: CN(C)[C@H]1CC[C@H](Oc2nc(Nc3ccccc3)nc3sc4c(c23)C(CC(N)=O)CC4)CC1 (some centres unmarked) [Compound I-204, 2-(12-[[4-(dimethylamino)cyclohexyl]oxy]-10-(phenylamino)-7-thia-9, 11-diazatricyclo[6.4.0.0̂[2,6]]dodeca-1(12),2(6),8, 10-tetraen-3-yl)acetamide]
IC50 (THP-1 cells; read-out: IL8 production IC50): 1000 to 5000 nM | IC50 (THP-1 cells; read-out: TNFα production IC50): 500 to 1000 nM

More lines, now with the values ahead:

IC50 (IRAK4): < 5000 nM | IC50 (THP-1 cells; read-out: IL8 production IC50): 500 to 1000 nM | IC50 (THP-1 cells; read-out: TNFα production IC50): 500 to 1000 nM
Compound: CN(C)[C@H]1CC[C@H](Oc2ncnc3sc4c(c23)[C@@H](CC(C#N)C(N)=O)CC4)CC1 (mixture of isomers) [Compound I-51, 2-cyano-3-(12-[[4-(dimethylamino)cyclohexyl]oxy]-7-thia-9,11-diazatricyclo[6.4.0.0[2,6]]dodeca-1(12),2(6),8,10-tetraen-3-yl)propanamide]

IC50 (THP-1 cells; read-out: IL8 production IC50): ≤ 500 nM | IC50 (THP-1 cells; read-out: TNFα production IC50): ≤ 500 nM
Compound: NC(=O)C(O)C[C@H]1CCc2sc3ncnc(O[C@H]4CC[C@H](N5CCOCC5)CC4)c3c21 (mixture of isomers) [Compound I-87, 2-hydroxy-3-((R)-4-(((1r,4R)-4-morpholinocyclohexyl)oxy)-6,7-dihydro-5H-cyclopenta[4,5]thieno[2,3-d]pyrimidin-5-yl)propanamide]

IC50 (IRAK4): < 5000 nM | IC50 (THP-1 cells; read-out: IL8 production IC50): ≤ 500 nM | IC50 (THP-1 cells; read-out: TNFα production IC50): ≤ 500 nM
Compound: CN(C)[C@H]1CC[C@H](Oc2ncnc3sc4c(c23)[C@@H](CCC#N)CC4)CC1 [Compound I-42, 3-[(3S)-12-[[4-(dimethylamino)cyclohexyl]oxy]-7-thia-9,11-diazatricyclo 1[6.4.0.0[2,6]]dodeca-1(8),2(6),9,11-tetraen-3-yl]propanenitrile]

IC50 (IRAK4): < 5000 nM | IC50 (THP-1 cells; read-out: IL8 production IC50): 500 to 1000 nM | IC50 (THP-1 cells; read-out: TNFα production IC50): 500 to 1000 nM
Compound: CN(C)[C@H]1CC[C@H](Oc2ncnc3sc4c(c23)[C@@H](CC(N)=O)CC4)CC1 [Compound I-43, 2-[(3R)-12-[[4-(dimethylamino)cyclohexyl]oxy]-7-thia-9,11-diazatricyclo[6.4.0.0[2,6]]dodeca-1(8),2(6),9,11-tetraen-3-yl]acetamide]

Source: patent publication US20160193216A1 (Nimbus Iris, Inc., priority 2012, published 2016)
